Results as given in patent EP0908457B1, “3-(1,2-benzisothiazol- and isoxazol-5-Y1)-2,4(1H,3H)-pyrimidinedione or thione and 3-(1,2-benzisothiazol- and isoxazol-5-y1)-4(3H)-pyrimidinone or thione herbicidal agents” (BASF AKTIENGESELLSCHAFT, priority 1997, dated 1999).

What was measured:
[1] = system: Oryza sativa, (L.) Tebonnet; experiment: Rice tolerance to post-transplant applications under flooded paddy conditions (Example 187), ORYSAT (Rice, Tebonnet); on herbicidal effect rating ORYSAT: meaning of each grade not given here
[2] = system: Echinochloa oryzoides (Ard.) Fritsch.; experiment: Preemergence weed control under flooded paddy conditions, ECHORC (Watergrass (Calif.)); type: in vivo; details: preemergence, flooded paddy; further: meaning of each grade not given here
[3] = system: Monochoria vaginalis, Presl.; experiment: Preemergence weed control under flooded paddy conditions, MOOVA (Monochoria); type: in vivo; details: preemergence, flooded paddy; further: meaning of each grade not given here
Cyperus iria = experiment: Preemergence weed control under flooded paddy conditions, CYPIR (Rice Flatsedge); type: in vivo; details: preemergence, flooded paddy; further: meaning of each grade not given here
[4] = system: Cyperus serotinus, Rottb.; experiment: Preemergence weed control under flooded paddy conditions, CYPSE (Flatsedge); type: in vivo; details: preemergence; further: meaning of each grade not given here
Sagittaria pygmaea, L. = experiment: Preemergence weed control under flooded paddy conditions, SAGPY (Arrowhead (Pygmaea)); type: in vivo; details: preemergence, flooded paddy; further: meaning of each grade not given here
[5] = Rate 0.0320 kg/ha, rated three to four weeks after treatment
[6] = Rate 0.0620 kg/ha, rated three to four weeks after treatment
[7] = Rate 0.1250 kg/ha, rated three to four weeks after treatment
[8] = Rate 0.2500 kg/ha, rated three to four weeks after treatment
[9] = 0.0313 kg/ha, rated three to four weeks after treatment
[10] = 0.0625 kg/ha, rated three to four weeks after treatment
[11] = 0.1250 kg/ha, rated three to four weeks after treatment
[12] = 0.2500 kg/ha, rated three to four weeks after treatment
[13] = Rate 0.5000 kg/ha, rated three to four weeks after treatment
[14] = Rate 0.0320 kg/ha, rated 3-4 weeks after treatment
[15] = Rate 0.0620 kg/ha, rated 3-4 weeks after treatment
[16] = Rate 0.1250 kg/ha, rated 3-4 weeks after treatment
[17] = Rate 0.2500 kg/ha, rated 3-4 weeks after treatment

COCCOCCOC(=O)c1nsc2ccc(-n3c(=O)cc(C(F)(F)F)n(C)c3=O)cc12 [Example 389, 1,2-Benzisothiazole-3-carboxylic acid, 5-[3,6-dihydro-3-methyl-2,6-dioxo-4-(trifluoromethyl)-1(2H)-pyrimidinyl]-, 2-(2-methoxyethoxy)ethyl ester]
3.0: herbicidal effect rating ORYSAT [1, 5] | herbicidal effect rating, ECHORC [2, 5] | herbicidal effect rating, SAGPY (Sagittaria pygmaea, L.; [5])
8.0: herbicidal effect rating, CYPSE [4, 8]
7.0: herbicidal effect rating, ECHORC [2, 8] | herbicidal effect rating, MOOVA [3, 5] | herbicidal effect rating, CYPIR (Cyperus iria; [7]) | herbicidal effect rating, CYPSE [4, 7] | herbicidal effect rating, SAGPY (Sagittaria pygmaea, L.; [7])
4.0: herbicidal effect rating ORYSAT [1, 6] | herbicidal effect rating ORYSAT [1, 7] | herbicidal effect rating, ECHORC [2, 6] | herbicidal effect rating, ECHORC [2, 7] | herbicidal effect rating, SAGPY (Sagittaria pygmaea, L.; [6])
9.0: herbicidal effect rating, MOOVA [3, 6] | herbicidal effect rating, MOOVA [3, 7] | herbicidal effect rating, MOOVA [3, 8] | herbicidal effect rating, CYPIR (Cyperus iria; [8]) | herbicidal effect rating, SAGPY (Sagittaria pygmaea, L.; [8])
5.0: herbicidal effect rating ORYSAT [1, 8] | herbicidal effect rating, CYPIR (Cyperus iria; [5]) | herbicidal effect rating, CYPIR (Cyperus iria; [6])
0.0: herbicidal effect rating, CYPSE [4, 5]

COC(=O)COc1ccc(C)cc1-c1nsc2ccc(-n3c(=O)cc(C)n(C)c3=O)cc12 [Example 38, Methyl {{2-[5-(3,6-dihydro-3,4-dimethyl-2,6-dioxo-1(2H)-pyrimidinyl)-1,2-benzisothiazol-3-yl]-p-tolyl}oxy}acetate]
1.0: herbicidal effect rating, ECHORC [2, 11]
2.0: herbicidal effect rating, ECHORC [2, 12]
0.0: herbicidal effect rating, ORYSAT (rice tolerance) [1, 9] | herbicidal effect rating, ORYSAT (rice tolerance) [1, 10] | herbicidal effect rating, ORYSAT (rice tolerance) [1, 11] | herbicidal effect rating, ORYSAT (rice tolerance) [1, 12] | herbicidal effect rating, ECHORC [2, 9] | herbicidal effect rating, ECHORC [2, 10] | herbicidal effect rating, MOOVA [3, 9] | herbicidal effect rating, MOOVA [3, 10] | herbicidal effect rating, MOOVA [3, 11] | herbicidal effect rating, MOOVA [3, 12] | herbicidal effect rating, CYPIR (Cyperus iria; [9]) | herbicidal effect rating, CYPIR (Cyperus iria; [10]) | herbicidal effect rating, CYPIR (Cyperus iria; [11]) | herbicidal effect rating, CYPIR (Cyperus iria; [12]) | herbicidal effect rating, CYPSE [4, 9] | herbicidal effect rating, CYPSE [4, 10] | herbicidal effect rating, CYPSE [4, 11] | herbicidal effect rating, CYPSE [4, 12] | herbicidal effect rating, SAGPY (Sagittaria pygmaea, L.; [9]) | herbicidal effect rating, SAGPY (Sagittaria pygmaea, L.; [10]) | herbicidal effect rating, SAGPY (Sagittaria pygmaea, L.; [11]) | herbicidal effect rating, SAGPY (Sagittaria pygmaea, L.; [12])

Cn1c(C(F)(F)F)cc(=O)n(-c2ccc3snc(/C=C/CBr)c3c2)c1=O [Example 360, 2,4(1H,3H)-Pyrimidinedione, 3-[3-(3-bromopropenyl)-1,2-benzisothiazol-5-yl]-1-methyl-6-(trifluoromethyl)-, (E)-]
0.0: herbicidal effect rating, ECHORC [2, 5] | herbicidal effect rating, CYPIR (Cyperus iria; [5]) | herbicidal effect rating, CYPSE [4, 5] | herbicidal effect rating, CYPSE [4, 6] | herbicidal effect rating, CYPSE [4, 7]
2.5: herbicidal effect rating, CYPIR (Cyperus iria; [6])
2.0: herbicidal effect rating ORYSAT [1, 6] | herbicidal effect rating, ECHORC [2, 6]
3.5: herbicidal effect rating ORYSAT [1, 7]
7.5: herbicidal effect rating, ECHORC [2, 8]
5.0: herbicidal effect rating, ECHORC [2, 7]
9.0: herbicidal effect rating ORYSAT [1, 8] | herbicidal effect rating ORYSAT [1, 13] | herbicidal effect rating, ECHORC [2, 13] | herbicidal effect rating, MOOVA [3, 8] | herbicidal effect rating, MOOVA [3, 13] | herbicidal effect rating, CYPIR (Cyperus iria; [7]) | herbicidal effect rating, CYPIR (Cyperus iria; [8]) | herbicidal effect rating, CYPIR (Cyperus iria; [13]) | herbicidal effect rating, CYPSE [4, 8] | herbicidal effect rating, SAGPY (Sagittaria pygmaea, L.; [8]) | herbicidal effect rating, SAGPY (Sagittaria pygmaea, L.; [13])
1.5: herbicidal effect rating, SAGPY (Sagittaria pygmaea, L.; [5])
4.5: herbicidal effect rating, MOOVA [3, 5] | herbicidal effect rating, MOOVA [3, 6] | herbicidal effect rating, MOOVA [3, 7] | herbicidal effect rating, SAGPY (Sagittaria pygmaea, L.; [6]) | herbicidal effect rating, SAGPY (Sagittaria pygmaea, L.; [7])
1.0: herbicidal effect rating ORYSAT [1, 5]

C#CCC(C#N)(CC#C)c1nsc2ccc(-n3c(=O)cc(C(F)(F)F)n(C)c3=O)cc12 [Example 581, 1,2-Benzisothiazole-3-acetonitrile, 5-[3,6-dihydro-3-methyl-2,6-dioxo-4-(trifluoromethyl)-1(2H)-pyrimidinyl]-alpha,alpha-di-2-propynyl-]
9.0: herbicidal effect rating, ECHORC [2, 7] | herbicidal effect rating, ECHORC [2, 8] | herbicidal effect rating, MOOVA [3, 7] | herbicidal effect rating, MOOVA [3, 8] | herbicidal effect rating, CYPIR (Cyperus iria; [7]) | herbicidal effect rating, CYPIR (Cyperus iria; [8]) | herbicidal effect rating, SAGPY (Sagittaria pygmaea, L.; [6]) | herbicidal effect rating, SAGPY (Sagittaria pygmaea, L.; [7]) | herbicidal effect rating, SAGPY (Sagittaria pygmaea, L.; [8])
3.5: herbicidal effect rating ORYSAT [1, 6]
3.0: herbicidal effect rating, CYPIR (Cyperus iria; [5]) | herbicidal effect rating, SAGPY (Sagittaria pygmaea, L.; [5])
8.5: herbicidal effect rating, ECHORC [2, 6]
6.0: herbicidal effect rating ORYSAT [1, 7] | herbicidal effect rating, ECHORC [2, 5] | herbicidal effect rating, CYPSE [4, 7]
7.0: herbicidal effect rating ORYSAT [1, 8]
1.5: herbicidal effect rating ORYSAT [1, 5] | herbicidal effect rating, CYPSE [4, 6]
4.5: herbicidal effect rating, MOOVA [3, 5] | herbicidal effect rating, MOOVA [3, 6] | herbicidal effect rating, CYPIR (Cyperus iria; [6])
8.0: herbicidal effect rating, CYPSE [4, 8]
1.0: herbicidal effect rating, CYPSE [4, 5]

CCCCCCC#CCCOC(=O)COc1ccc(C)cc1-c1nsc2ccc(-n3c(=O)cc(C(F)(F)F)n(C)c3=O)cc12 [Example 522, Acetic acid, {{2-{5-[3,6-dihydro-3-methyl-2,6-dioxo-4-(trifluoromethyl)-1(2H)-pyrimidinyl]-1,2-benzisothiazol-3-yl}-p-tolyl}oxy}-, 3-decynyl ester]
0.0: herbicidal effect rating, CYPIR (Cyperus iria; [14]) | herbicidal effect rating, CYPIR (Cyperus iria; [15]) | herbicidal effect rating, CYPIR (Cyperus iria; [16]) | herbicidal effect rating, CYPSE [4, 14] | herbicidal effect rating, CYPSE [4, 15] | herbicidal effect rating, CYPSE [4, 16] | herbicidal effect rating, CYPSE [4, 17] | herbicidal effect rating, SAGPY (Sagittaria pygmaea, L.; [14]) | herbicidal effect rating, SAGPY (Sagittaria pygmaea, L.; [15]) | herbicidal effect rating, SAGPY (Sagittaria pygmaea, L.; [16]) | herbicidal effect rating, SAGPY (Sagittaria pygmaea, L.; [17])
9.0: herbicidal effect rating, ECHORC [2, 17] | herbicidal effect rating, MOOVA [3, 14] | herbicidal effect rating, MOOVA [3, 15] | herbicidal effect rating, MOOVA [3, 16] | herbicidal effect rating, MOOVA [3, 17]
4.0: herbicidal effect rating ORYSAT [1, 15] | herbicidal effect rating ORYSAT [1, 16]
5.5: herbicidal effect rating, ECHORC [2, 14]
2.0: herbicidal effect rating, CYPIR (Cyperus iria; [17])
6.5: herbicidal effect rating, ECHORC [2, 15]
4.5: herbicidal effect rating ORYSAT [1, 17]
2.5: herbicidal effect rating ORYSAT [1, 14]
8.0: herbicidal effect rating, ECHORC [2, 16]
